The values below come from patent publication US9801880B2, “Use of kinase inhibitors” (BerGenBio AS, priority 2013, dated 2017).

“And” between values parts separate entries of the source, which are not always exact repeats. Equal entries are not always repeated.

The target of assay [1] is Other mutations of Abl kinase that arise during development of resistance (Homo sapiens, UniProt P00519). The assay is described as follows: Inhibition of other Abl kinase resistance mutations (biochemical assays). The conditions noted are these: read-out: inhibition range, other mutations of Abl kinase. The text has this:
Detailed assay methodologies can be found in the relevant references cited herein, or in the KinaseProfiler Service Assay Protocols (v54, 2011) available from EMD Millipore (www.emdmillipore.com), or from the KinomeScan website (www.kinomescan.com), as appropriate. (For a more detailed description of KINOMEscan's assay technology, see: Fabian et al. A small molecule-kinase interaction map for clinical kinase inhibitors. Nat. Biotechnol. 23, 329-336 (2005)). A summary is provided below.
KinaseProfiler™ assays (EMD Millipore Corp. Billerica, Mass., USA) are […] with purified or partially-purified human kinases. Most of the KinaseProfiler™ assays are conducted in 20 mM MOPS, 1 mM EDTA, 0.01% Brij-35, 5% Glycerol, 0.1% b-mercaptoethanol, 1 mg/mL BSA. The assay involves the transfer of ^32P from γ-^32P-ATP to the target peptide, followed by washing and trapping of the labeled peptide on a filter. The concentration of γ-^32P-ATP used was at the established Km for ATP.

For assay [2], the system named is Ba/F3 cells (WT, FLT3 WT, FLT3 ITD, FLT3 D835Y). The assay is described as follows: WST-1 and 3H-Thymidine incorporation cell proliferation assays, all Ba/F3 lines. The assay is classed as cell-based, Murine. To be noted: by 3 μM; regardless of cell line. The text has this:
Murine pro-B lymphocyte line Ba/F3 wild type (Ba/F3 WT), and Ba/F3 lines stably transduced with expression vectors that encoded wild-type human FLT3 (Ba/F3 FLT3 WT cells) or human FLT3 containing an ITD mutation (Ba/F3-ITD cells) or D835Y (Ba/F3 D835Y cells) point mutations, which lead to constitutively functional activation of the protein, were obtained from Bjørn Tore Gjertsen (Department of Clinical Science, Hematology Section, University of Bergen, Bergen, Norway). […]
Proliferation of cells was assessed using the tetrazolium salt WST-1 that is cleaved to chromogenic formazan dye by mitochondrial dehydrogenases in viable cells. […] The absorbance of the samples was measured by Spectramax Plus 384 Spectrophotometer (Molecular Devices Corp., Sunnyvale, Calif., USA) and the percentage of proliferation was calculated by using the following formula: (Arbitrary units (AU) of treated sample−AU of background control)/(AU of untreated sample−AU of background control).
Following 18 hours incubation, the DNA was harvested and radioactivity was assessed by liquid scintillation counting (Packard Microplate Scintillation and Luminescence counter, Perkin Elmer Life and Analytical Science, Inc., Waltham, USA).
(Formazan colour is commonly taken as a measure of viable cells.)

The target in a further assay is Flt1 (Homo sapiens, UniProt P17948). The assay is described as follows: KinaseProfiler kinase activity assay. The assay is classed as biochemical. Also on record: purchased EMD Millipore Corp. (KinaseProfiler service). To be noted: ATP at Km. The text has this:
(§1) A summary is provided below.

The next assay deals with Flt3 (D835Y) (Homo sapiens, UniProt P36888, D835Y). The assay is described as follows: KinaseProfiler kinase activity assay. The assay is classed as biochemical. Details: purchased EMD Millipore Corp. (KinaseProfiler service). The conditions noted are these: ATP at Km.
From the text: as §1

A further assay addresses Flt3 (Homo sapiens, UniProt P36888). The assay is described as follows: KinaseProfiler kinase activity assay. Details: purchased EMD Millipore Corp. (KinaseProfiler service). The conditions noted are these: Flt3 wild-type; ATP at Km. It counts as biochemical.
From the text: as §1

The target in another assay is Flt4 (Homo sapiens, UniProt P35916). The assay is described as follows: KinaseProfiler kinase activity assay. It counts as biochemical. Also on record: purchased EMD Millipore Corp. (KinaseProfiler service). The conditions noted are these: ATP at Km.
From the text: as §1

The next assay deals with Ret (V804L) (Homo sapiens, UniProt P07949, V804L). The assay is described as follows: KinaseProfiler kinase activity assay. It counts as biochemical. Details: purchased EMD Millipore Corp. (KinaseProfiler service). The conditions noted are these: ATP at Km.
Chain of Ret (V804L) (P07949 29-1114 V804L): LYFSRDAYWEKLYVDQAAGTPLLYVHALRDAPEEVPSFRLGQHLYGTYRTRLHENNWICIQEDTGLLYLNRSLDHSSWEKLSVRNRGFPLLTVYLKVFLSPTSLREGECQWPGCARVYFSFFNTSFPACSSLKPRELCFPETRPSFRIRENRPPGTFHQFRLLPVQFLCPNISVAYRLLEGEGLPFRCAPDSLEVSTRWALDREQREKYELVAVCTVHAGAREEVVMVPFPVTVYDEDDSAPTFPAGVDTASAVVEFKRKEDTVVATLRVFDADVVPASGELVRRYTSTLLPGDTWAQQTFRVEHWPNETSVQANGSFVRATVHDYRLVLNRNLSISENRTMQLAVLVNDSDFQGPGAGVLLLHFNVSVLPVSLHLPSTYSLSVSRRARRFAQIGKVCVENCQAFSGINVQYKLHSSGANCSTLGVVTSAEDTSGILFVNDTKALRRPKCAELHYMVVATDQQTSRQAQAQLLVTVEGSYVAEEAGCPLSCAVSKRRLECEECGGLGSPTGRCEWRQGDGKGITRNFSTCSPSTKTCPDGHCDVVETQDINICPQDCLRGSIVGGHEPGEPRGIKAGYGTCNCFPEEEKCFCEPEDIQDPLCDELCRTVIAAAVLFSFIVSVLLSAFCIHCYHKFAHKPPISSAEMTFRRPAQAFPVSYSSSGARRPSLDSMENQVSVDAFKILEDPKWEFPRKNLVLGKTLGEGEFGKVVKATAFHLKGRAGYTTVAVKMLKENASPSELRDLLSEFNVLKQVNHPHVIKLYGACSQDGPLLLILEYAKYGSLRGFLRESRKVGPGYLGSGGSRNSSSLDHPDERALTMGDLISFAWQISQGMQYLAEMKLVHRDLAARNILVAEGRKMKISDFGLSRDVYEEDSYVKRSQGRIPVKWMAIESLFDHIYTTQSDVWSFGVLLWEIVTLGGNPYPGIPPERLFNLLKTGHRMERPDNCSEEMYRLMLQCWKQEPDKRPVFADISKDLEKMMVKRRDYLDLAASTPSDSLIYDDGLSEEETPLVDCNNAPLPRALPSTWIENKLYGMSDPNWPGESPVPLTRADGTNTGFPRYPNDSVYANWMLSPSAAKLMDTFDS
From the text: as §1

For the next assay, the target named is Ret (V804M) (Homo sapiens, UniProt P07949, V804M). The assay is described as follows: KinaseProfiler kinase activity assay. Details: purchased EMD Millipore Corp. (KinaseProfiler service). To be noted: ATP at Km. It counts as biochemical.
Chain of Ret (V804M) (P07949 29-1114 V804M): as the sequence (P07949 29-1114 V804L) above, with L776M counted along it
From the text: as §1

A further assay concerns the target Stk10 (Homo sapiens, UniProt O94804). The assay is described as follows: KinaseProfiler kinase activity assay. It counts as biochemical. Also on record: purchased EMD Millipore Corp. (KinaseProfiler service). To be noted: Stk10 (LOK); ATP at Km.
From the text: as §1

Another assay deals with TEK (Homo sapiens, UniProt Q02763). The assay is described as follows: KinaseProfiler kinase activity assay. It counts as biochemical. Details: purchased EMD Millipore Corp. (KinaseProfiler service). To be noted: ATP at Km.
Chain of TEK (Q02763 23-1124): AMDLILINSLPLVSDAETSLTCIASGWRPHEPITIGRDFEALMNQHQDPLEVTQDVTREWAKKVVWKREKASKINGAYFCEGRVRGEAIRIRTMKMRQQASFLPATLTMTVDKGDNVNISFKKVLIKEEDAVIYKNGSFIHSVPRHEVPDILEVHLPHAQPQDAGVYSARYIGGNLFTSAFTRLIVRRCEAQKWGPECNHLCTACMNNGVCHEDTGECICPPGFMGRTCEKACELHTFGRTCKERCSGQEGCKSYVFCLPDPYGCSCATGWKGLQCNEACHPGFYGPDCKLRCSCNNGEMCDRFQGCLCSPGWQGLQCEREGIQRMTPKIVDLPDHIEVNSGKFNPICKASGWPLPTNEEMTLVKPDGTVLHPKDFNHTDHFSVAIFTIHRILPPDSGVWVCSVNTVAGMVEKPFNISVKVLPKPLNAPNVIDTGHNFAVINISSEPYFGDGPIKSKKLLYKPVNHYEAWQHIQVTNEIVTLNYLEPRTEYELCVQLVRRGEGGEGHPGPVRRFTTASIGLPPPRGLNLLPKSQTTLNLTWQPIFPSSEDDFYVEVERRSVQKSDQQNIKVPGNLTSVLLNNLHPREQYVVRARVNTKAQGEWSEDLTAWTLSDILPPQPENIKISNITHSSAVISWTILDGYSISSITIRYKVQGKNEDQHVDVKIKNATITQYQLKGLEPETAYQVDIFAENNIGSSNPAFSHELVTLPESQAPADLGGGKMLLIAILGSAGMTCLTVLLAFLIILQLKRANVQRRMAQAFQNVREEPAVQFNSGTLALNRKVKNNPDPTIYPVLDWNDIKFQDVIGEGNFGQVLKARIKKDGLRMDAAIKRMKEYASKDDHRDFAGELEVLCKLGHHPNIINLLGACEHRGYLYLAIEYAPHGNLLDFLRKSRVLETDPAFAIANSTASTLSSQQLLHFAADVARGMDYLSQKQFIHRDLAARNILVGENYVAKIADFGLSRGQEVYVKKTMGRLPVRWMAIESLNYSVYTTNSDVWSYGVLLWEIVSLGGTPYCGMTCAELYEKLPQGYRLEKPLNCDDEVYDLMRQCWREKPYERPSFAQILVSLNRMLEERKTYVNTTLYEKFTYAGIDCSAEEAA
From the text: as §1

For another assay, the target named is Wee1 (Homo sapiens, UniProt P30291). The assay is described as follows: KinaseProfiler kinase activity assay. It counts as biochemical. Details: purchased EMD Millipore Corp. (KinaseProfiler service). To be noted: ATP at Km.
From the text: as §1

Another assay deals with Yes (Homo sapiens, UniProt P07947). The assay is described as follows: KinaseProfiler kinase activity assay. It counts as biochemical. To be noted: ATP at Km. Details: purchased EMD Millipore Corp. (KinaseProfiler service).
Chain of Yes (P07947 whole entry): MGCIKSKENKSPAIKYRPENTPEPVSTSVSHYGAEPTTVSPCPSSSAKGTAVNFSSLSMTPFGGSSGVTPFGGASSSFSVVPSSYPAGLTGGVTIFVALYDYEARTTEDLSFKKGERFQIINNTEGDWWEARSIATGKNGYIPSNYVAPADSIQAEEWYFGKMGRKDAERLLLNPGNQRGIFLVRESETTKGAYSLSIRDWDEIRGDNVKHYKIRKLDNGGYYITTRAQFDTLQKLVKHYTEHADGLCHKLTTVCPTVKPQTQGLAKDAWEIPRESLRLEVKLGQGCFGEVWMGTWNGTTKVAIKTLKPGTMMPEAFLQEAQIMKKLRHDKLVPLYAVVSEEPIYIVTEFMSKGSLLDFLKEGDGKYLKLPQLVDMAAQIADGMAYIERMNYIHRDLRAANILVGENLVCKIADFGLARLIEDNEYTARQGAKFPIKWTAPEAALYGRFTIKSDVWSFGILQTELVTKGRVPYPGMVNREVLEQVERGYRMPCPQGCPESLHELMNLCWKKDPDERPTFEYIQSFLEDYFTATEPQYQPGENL
From the text: as §1

The next assay concerns the target c-Kit (Homo sapiens, UniProt P10721). The assay is described as follows: KinaseProfiler kinase activity assay. It counts as biochemical. Also on record: purchased EMD Millipore Corp. (KinaseProfiler service).

Chain of Flt1 (P17948 27-1338): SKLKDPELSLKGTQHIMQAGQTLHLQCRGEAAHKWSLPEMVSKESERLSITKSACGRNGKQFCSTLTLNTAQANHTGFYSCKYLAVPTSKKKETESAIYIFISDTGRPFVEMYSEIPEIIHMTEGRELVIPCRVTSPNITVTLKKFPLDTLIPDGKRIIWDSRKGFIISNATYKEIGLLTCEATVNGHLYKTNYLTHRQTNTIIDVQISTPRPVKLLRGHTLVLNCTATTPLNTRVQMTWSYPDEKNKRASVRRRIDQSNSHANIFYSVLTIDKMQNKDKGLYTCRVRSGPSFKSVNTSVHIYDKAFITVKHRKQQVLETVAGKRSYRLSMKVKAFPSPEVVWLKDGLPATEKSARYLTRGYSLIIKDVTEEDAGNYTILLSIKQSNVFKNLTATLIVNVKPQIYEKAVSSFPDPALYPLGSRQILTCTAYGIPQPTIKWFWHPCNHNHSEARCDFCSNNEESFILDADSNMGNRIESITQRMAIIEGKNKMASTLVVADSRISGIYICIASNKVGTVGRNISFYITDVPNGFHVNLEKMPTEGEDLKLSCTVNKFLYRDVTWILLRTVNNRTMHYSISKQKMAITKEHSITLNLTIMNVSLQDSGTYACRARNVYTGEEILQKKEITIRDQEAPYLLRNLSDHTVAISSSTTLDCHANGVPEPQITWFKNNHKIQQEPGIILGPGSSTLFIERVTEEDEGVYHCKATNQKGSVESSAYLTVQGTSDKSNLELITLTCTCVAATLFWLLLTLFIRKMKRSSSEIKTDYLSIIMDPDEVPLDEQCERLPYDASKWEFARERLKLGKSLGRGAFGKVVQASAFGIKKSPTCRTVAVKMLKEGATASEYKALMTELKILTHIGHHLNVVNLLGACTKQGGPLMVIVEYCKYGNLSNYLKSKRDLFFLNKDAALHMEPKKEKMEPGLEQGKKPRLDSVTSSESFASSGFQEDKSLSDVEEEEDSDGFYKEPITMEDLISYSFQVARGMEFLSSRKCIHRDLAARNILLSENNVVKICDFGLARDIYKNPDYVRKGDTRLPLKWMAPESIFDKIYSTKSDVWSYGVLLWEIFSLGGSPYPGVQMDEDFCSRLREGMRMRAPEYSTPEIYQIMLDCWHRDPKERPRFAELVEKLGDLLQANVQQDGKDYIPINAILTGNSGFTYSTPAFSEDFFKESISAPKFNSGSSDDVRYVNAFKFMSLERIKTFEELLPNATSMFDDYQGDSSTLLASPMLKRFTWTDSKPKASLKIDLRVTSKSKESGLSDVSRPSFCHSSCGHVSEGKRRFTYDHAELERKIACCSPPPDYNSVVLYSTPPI
Chain of c-Kit (P10721 26-976): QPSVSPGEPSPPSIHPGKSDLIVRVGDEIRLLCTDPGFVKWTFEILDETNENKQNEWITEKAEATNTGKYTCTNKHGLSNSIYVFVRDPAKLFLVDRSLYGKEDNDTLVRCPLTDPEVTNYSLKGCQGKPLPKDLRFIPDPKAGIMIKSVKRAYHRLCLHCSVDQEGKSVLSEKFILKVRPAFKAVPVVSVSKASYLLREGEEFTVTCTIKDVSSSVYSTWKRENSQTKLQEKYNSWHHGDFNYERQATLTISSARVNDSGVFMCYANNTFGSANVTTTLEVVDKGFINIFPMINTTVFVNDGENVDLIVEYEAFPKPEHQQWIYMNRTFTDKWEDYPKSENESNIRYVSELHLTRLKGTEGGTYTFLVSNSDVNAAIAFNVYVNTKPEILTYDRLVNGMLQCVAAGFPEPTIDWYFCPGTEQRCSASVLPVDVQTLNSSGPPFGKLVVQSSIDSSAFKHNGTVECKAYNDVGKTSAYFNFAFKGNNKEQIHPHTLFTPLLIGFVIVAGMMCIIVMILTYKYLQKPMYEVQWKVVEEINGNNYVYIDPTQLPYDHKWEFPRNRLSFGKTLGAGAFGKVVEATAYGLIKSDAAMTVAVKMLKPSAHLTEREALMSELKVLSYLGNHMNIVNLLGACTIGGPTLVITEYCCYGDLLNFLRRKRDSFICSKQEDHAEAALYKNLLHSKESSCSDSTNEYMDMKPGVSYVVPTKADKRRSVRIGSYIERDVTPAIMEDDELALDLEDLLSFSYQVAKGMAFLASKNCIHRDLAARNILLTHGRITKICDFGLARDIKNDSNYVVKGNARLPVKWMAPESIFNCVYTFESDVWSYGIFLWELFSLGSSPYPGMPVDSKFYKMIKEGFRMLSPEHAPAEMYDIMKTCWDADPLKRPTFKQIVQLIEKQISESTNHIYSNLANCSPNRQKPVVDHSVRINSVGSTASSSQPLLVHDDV
Experimental for c-Kit: KinaseProfiler™ assays (EMD Millipore Corp. Billerica, Mass., USA) are radioligand binding assays with purified or partially-purified human kinases. Most of the KinaseProfiler™ assays are conducted in 20 mM MOPS, 1 mM EDTA, 0.01% Brij-35, 5% Glycerol, 0.1% b-mercaptoethanol, 1 mg/mL BSA. The assay involves the transfer of ^32P from γ-^32P-ATP to the target peptide, followed by washing and trapping of the labeled peptide on a filter. The concentration of γ-^32P-ATP used was at the established Km for ATP.

For `Nc1nc(Nc2ccc3c(c2)CC[C@@H](N2CCCC2)CC3)nn1-c1cc2c(nn1)-c1ccccc1CCC2` [Compound A, 1-(6,7-dihydro-5H-benzo[6,7]cyclohepta[1,2-c]pyridazine-3-yl)-N^3-(7-(S)-(pyrrolidin-1-yl)-6,7,8,9-tetrahydro-5H-benzo[7]annulene-2-yl)-1H-1,2,4-triazole-3,5-diamine], the IC50 in assay [1] was 16 to 32 nM; against Flt1 it was 40 nM; on Flt3 (D835Y), 13 nM; on Flt3, 122 nM; at Flt4, 41 nM; against Ret (V804L), 11 nM. Moreover, the IC50 against Ret (V804M) was 21 nM; on Stk10, 22 nM; against TEK, 30 nM and 41 nM; against Wee1 it was 32 nM; against Yes, 43 nM; against c-Kit it was 1280 nM. Besides, the “cell death in proliferation assays” value in assay [2] is listed as “all cells are dead”.
